Experiments:
Type in all cases: in vivo, Balb/c mice
[1] = test system: IL-6, IL-10, IL-1β; assay: Determination of cytokines in intestinal tumor tissues by Elisa; conditions: vs model group
Procedure: Experimental method: 90 Balb/c mice of 6-8 weeks were purchased from the Experimental Animal Center in Guangzhou University of Chinese Medicine, weighed about 18-22 g, and subjected to adaptive feeding for 10 days. Modeling was divided into three stages. In the first stage, except for the normal group of animals being given saline injection, each of the other animals were intraperitoneally injected with a carcinogen AOM (10 mg/kg), and given free access to 2% DSS water from the next day for 7 days, and then given access to replaced regular drinking water for 14 days. In the second stage, the animals were given free access to 2% DSS water for 10 days, and then given access to replaced regular drinking water for 14 days. In the third stage, the animals were given free access to 2% DSS water for 10 days, and then given access to replaced regular drinking water for 11 days. The normal group was given access to regular drinking water throughout the experiment. The diet, water drinking and body weights of the animals were recorded daily and DAI scores were made, and the animals were killed and harvested at the 10th week. In this experiment, the animals were divided into groups and administrated on the first day of a modeling period of the second stage, and the total number of groups was set to 5 groups. […]
The intestinal tumor tissues frozen and stored at −80° C. were taken and homogenized, and the homogenate was determined with a BCA kit for the total protein concentration thereof. The homogenate was diluted by 20 times and then determined by Elisa method for cytokines: IL-6, IL-10, and IL-1β. […]

[2] = test system: peripheral blood macrophages; assay: Typing of peripheral blood macrophages by flow cytometry; conditions: compared with normal group
Procedure: Experimental method: 90 Balb/c mice of 6-8 weeks were purchased from the Experimental Animal Center in Guangzhou University of Chinese Medicine, weighed about 18-22 g, and subjected to adaptive feeding for 10 days. Modeling was divided into three stages. In the first stage, except for the normal group of animals being given saline injection, each of the other animals were intraperitoneally injected with a carcinogen AOM (10 mg/kg), and given free access to 2% DSS water from the next day for 7 days, and then given access to replaced regular drinking water for 14 days. In the second stage, the animals were given free access to 2% DSS water for 10 days, and then given access to replaced regular drinking water for 14 days. In the third stage, the animals were given free access to 2% DSS water for 10 days, and then given access to replaced regular drinking water for 11 days. The normal group was given access to regular drinking water throughout the experiment. The diet, water drinking and body weights of the animals were recorded daily and DAI scores were made, and the animals were killed and harvested at the 10th week. In this experiment, the animals were divided into groups and administrated on the first day of a modeling period of the second stage, and the total number of groups was set to 5 groups. […] Dosing was conducted daily until dissection. […]

[3] = test system: intestinal permeability; assay: Determination of intestinal permeability in serum with FITC-dextran; conditions: after third stage of modeling; monotropein high and low doses, 5-ASA 100 mg/kg
Procedure: Experimental method: 90 Balb/c mice of 6-8 weeks were purchased from the Experimental Animal Center in Guangzhou University of Chinese Medicine, weighed about 18-22 g, and subjected to adaptive feeding for 10 days. Modeling was divided into three stages. In the first stage, except for the normal group of animals being given saline injection, each of the other animals were intraperitoneally injected with a carcinogen AOM (10 mg/kg), and given free access to 2% DSS water from the next day for 7 days, and then given access to replaced regular drinking water for 14 days. In the second stage, the animals were given free access to 2% DSS water for 10 days, and then given access to replaced regular drinking water for 14 days. In the third stage, the animals were given free access to 2% DSS water for 10 days, and then given access to replaced regular drinking water for 11 days. […] The diet, water drinking and body weights of the animals were recorded daily and DAI scores were made, and the animals were killed and harvested at the 10th week. […] 25 μl of serum was taken and added with 100 μl PBS, and determined on a microplate reader for its fluorescence intensity, where the wavelength of the exciting light was 480 nm, and the wavelength of the emitting light was 520 nm. A standard curve was made and the sample concentration was calculated.

O=C(O)C1=CO[C@@H](O[C@@H]2O[C@H](CO)[C@@H](O)[C@H](O)[C@H]2O)[C@H]2[C@@H]1C=C[C@]2(O)CO [monotropein]
level of IL-10 in tumor tissues ([1]; high-dose monotropein (8 mg/kg) and positive drug 5-ASA (100 mg/kg)): no significant differences
level of IL-10 in tumor tissues ([1]; low-dose monotropein (2 mg/kg)): extremely significantly up-regulated
M1/M2 ratio of peripheral blood macrophages [2]: up-regulating trend
intestinal permeability (FITC-dextran in serum) vs model group [3]: significant differences

From patent US20210177879A1, “VITAMIN D RECEPTOR AGONIST” (Guanghzou University of Chinese Medicine, priority 2018, published 2021)
